# Measured values from patent publication EP0342396A1, “Ophthalmic ointments for the treatment of glaucoma, comprising ergot alkaloids” (LEK, tovarna farmacevtskih in kemicnih izdelkov, n.sol.o., priority 1988, dated 1989).
# What was measured:
# glaucoma patients [1] = experiment: Clinical trial: effect of ophthalmic ointment comprising 0.01 % active substance on intraocular pressure (I.O.P.); conditions: human, in vivo
# Method: (§1) The clinical tests on glaucoma patients were performed with an ophthalmic ointment comprising 0.01 % and 0.025 % of dihydro­ergotoxine methanesulfonate or bromocryptine methanesulfonate.
# Effect of ophthalmic ointment comprising 0.01 % of dihydroer­gotoxine methanesulfonate or bromocryptine methanesulfonate on the intraocular pressure (I.O.P.) in glaucoma patients
# The effect of the ophthalmic ointment comprising 0.01 % of dihydroergotoxine (as base and as methanesulfonate salt) and of bromocryptine methanesulfonate on the intraocular pressure in both eyes was tested in five male and three female glaucoma patients aged from 34 to 62 years.
# glaucoma patients [2] = conditions: human, in vivo
# Method: as §1
# The effect of the ophthalmic ointment comprising 0.025 % of dihydroergotoxine methanesulfonate or bromocryptine methane­sulfonate on the intraocular pressure in both eyes was tested in four male and three female glaucoma patients, agend from 31 to 64 years.
# The ointment was applied into the conjunctival sac in the morning and in the evening. Before application, the I.O.P. was measured. This procedure was repeated for five days.
structure (smiles),measurement,setting,value
CC(C)C[C@H]1C(=O)N2CCC[C@H]2[C@]2(O)O[C@](NC(=O)[C@@H]3C=C4c5cccc6[nH]c(Br)c(c56)C[C@H]4N(C)C3)(C(C)C)C(=O)N12 [bromocryptine methanesulfonate],maximum reduction of I.O.P.,glaucoma patients [1],21%
same,time for which the effect (reduction of I.O.P.) was present,glaucoma patients [1],at least five
same,I.O.P. from which it decreased,glaucoma patients [2],4.00 kPa
same,I.O.P. to which it decreased,glaucoma patients [2],2.67 kPa
same,reduction of intraocular pressure,glaucoma patients [2],30%
same,undesired side effects,glaucoma patients [2],No undesired side effects
